Laboratory results from patent publication US5338725A, “Anti-aggregatory agents for platelets” (The Research Foundation of the State University of New York, priority 1992, dated 1994).
Starred links: 1 amine or outer side, 2 acyl side, 3 side chain; linkers in the order of their positions; H or OH if unused. Positions of bridges follow the written chain, without caps; N, C: chain ends. Non-standard residues stand in square brackets, D forms with d. Residues, ends and D or L forms follow the SMILES beside them. Chains are numbered I, II in the order given. X2 = O=C(O)CNC(=O)c1cc(N[*:1])cc(N[*:2])c1; X1 = NC(=O)c1cc(N[*:1])cc(N[*:2])c1; Adipoyl = O=C(CCCCC(=O)[*:2])[*:1]; Glutaryl = O=C(CCCC(=O)[*:2])[*:1]; 3Abz = Nc1cccc(C(=O)O)c1; 4Abz = Nc1ccc(C(=O)O)cc1; 2Abz = Nc1ccccc1C(=O)O

target: human platelet-rich plasma (Homo sapiens, UniProt P05106+P08514); test: In vitro inhibition of ADP-induced aggregation of human platelet-rich plasma (Coller assay); format: cell-based; conditions: adjusted for fibrinogen concentration (ca. 30 times lower than Coller assay value; 0.1 mg/mL fibrinogen)
Sequence (P08514 32-1039): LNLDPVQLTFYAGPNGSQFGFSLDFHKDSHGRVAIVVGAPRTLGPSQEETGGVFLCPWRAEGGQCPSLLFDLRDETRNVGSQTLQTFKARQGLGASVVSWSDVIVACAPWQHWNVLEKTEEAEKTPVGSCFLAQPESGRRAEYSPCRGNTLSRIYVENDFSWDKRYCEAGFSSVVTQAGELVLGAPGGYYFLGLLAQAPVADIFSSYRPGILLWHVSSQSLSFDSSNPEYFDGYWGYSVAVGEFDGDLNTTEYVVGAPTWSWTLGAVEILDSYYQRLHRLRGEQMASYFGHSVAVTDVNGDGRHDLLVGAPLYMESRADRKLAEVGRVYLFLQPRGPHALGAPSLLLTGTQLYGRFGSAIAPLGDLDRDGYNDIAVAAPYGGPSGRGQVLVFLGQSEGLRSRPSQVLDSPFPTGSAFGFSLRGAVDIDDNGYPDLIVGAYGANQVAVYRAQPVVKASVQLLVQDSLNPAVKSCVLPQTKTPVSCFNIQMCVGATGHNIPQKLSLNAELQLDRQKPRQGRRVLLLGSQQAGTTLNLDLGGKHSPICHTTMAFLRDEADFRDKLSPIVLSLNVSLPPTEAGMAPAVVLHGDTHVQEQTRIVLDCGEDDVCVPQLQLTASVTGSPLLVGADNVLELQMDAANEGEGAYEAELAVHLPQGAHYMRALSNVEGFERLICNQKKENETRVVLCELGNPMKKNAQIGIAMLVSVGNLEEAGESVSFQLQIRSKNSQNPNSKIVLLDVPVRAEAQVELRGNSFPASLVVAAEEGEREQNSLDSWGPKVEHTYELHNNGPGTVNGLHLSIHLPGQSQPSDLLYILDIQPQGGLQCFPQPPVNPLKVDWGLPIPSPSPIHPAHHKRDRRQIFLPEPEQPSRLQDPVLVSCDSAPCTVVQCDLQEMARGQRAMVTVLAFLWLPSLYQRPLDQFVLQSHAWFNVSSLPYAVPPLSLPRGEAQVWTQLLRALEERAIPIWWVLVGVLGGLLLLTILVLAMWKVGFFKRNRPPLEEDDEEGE
Sequence (P05106 27-788): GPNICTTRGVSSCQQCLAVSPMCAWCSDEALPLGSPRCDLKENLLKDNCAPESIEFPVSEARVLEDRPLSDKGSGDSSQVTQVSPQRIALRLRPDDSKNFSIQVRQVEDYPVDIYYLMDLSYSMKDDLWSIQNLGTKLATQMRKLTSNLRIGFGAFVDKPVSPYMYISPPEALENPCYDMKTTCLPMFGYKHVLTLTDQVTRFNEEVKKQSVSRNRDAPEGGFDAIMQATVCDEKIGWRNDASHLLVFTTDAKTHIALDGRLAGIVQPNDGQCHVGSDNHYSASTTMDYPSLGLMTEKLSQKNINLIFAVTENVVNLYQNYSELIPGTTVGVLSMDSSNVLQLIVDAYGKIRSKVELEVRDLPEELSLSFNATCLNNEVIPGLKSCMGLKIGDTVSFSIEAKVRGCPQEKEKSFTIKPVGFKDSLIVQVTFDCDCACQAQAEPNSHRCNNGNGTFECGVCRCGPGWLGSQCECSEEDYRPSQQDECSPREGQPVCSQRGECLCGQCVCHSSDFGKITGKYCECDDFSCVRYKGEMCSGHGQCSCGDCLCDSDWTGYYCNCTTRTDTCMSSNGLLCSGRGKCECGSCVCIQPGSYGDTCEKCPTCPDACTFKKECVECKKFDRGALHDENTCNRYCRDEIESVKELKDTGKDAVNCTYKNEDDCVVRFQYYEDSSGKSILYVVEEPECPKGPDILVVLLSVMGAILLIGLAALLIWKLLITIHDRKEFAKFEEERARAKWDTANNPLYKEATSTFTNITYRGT
Experimental: 1. In vitro Inhibition of Aggregation of Human Platelet-Rich Plasma
Whole blood (10 ml) was collected from human volunteers and anticoagulated by addition of […] of 40% sodium citrate. Platelet-rich plasma (PRP) was prepared by low speed centrifugation (700 G for 3.5 min at 22° C.). The PRP was removed and the remaining blood was centrifuged at 2000 G for 10 min at 22 ° C. to obtain platelet poor plasma (PPP). The PRP was diluted with PPP to give a final platelet count of 300 000μL with a Coulter Acounter Model ZM (Coulter, Hialeah, Fla.). This diluted PRP (400μL) was placed in a siliconized glass cuvette equipped with a magnetic stirrer and stirred at 1200 rpm at 37° C. Various concentrations of the peptides (36μL) in TRIS buffer (0.01 M TRIS, 0.15 M NaCl, and 0.05% sodium azide, pH 7.4) was added and incubated for 3 rain before platelet aggregation was induced by addition of 54μL of 100μM ADP in HEPES buffer (0.01 M HEPES and 0.15 M NaCl, pH 7.5). The platelet aggregation was determined by a change in light transmission through the PRP on a Lumi Aggregometer 400rS (ChronoLog, Hayertown, PA). The ability of the peptides to inhibit platelet aggregation was evaluated and the IC50 was determined as the concentration of peptide required to produce 50% inhibition of the response to ADP in the presence of the TRIS buffer.
The assay system developed by Coller, which is used throughout the experiment, is different from conventional assay systems in certain aspects. First, the platelets used by Plow et al., Blood, 70, 110 (1987); and Garsky et al., Proc. Natl. Acad. Sci. U.S.A., 86, 4022 (1989) are gel-filtered to remove plasma proteins. Since the gel-filtration treatment may decrease the reactivity of the platelets, our assay avoids this step. The platelet count is adjusted by simply mixing PRP and PPP, which minimizes alterations of the platelets. Second, fibrinogen concentration in the Coller system is different from that of others. As shown in the experimental description of the assay, PRP was obtained from fresh blood and used immediately without further manipulation except for count adjustment. According to measurements obtained using this assay, such plasma contains ca. 3 mg of fibrinogen per 1 mL of plasma. On the other hand, fibrinogen concentration used in the Garsky and Plow assay system is 0.1 mg/mL. The concentration of fibrinogen affects the amount of RGD peptide required to inhibit platelet aggregation, with higher fibrinogen concentrations resulting in higher IC50 values. If there is a linear relationship between these two parameters, the IC50 values obtained from the Coller assay should be ca. 30 times larger than those obtained from the Plow et al. assay or the Garsky et al. assay. The adjusted IC50 values are presented in column 4 of Table showing the inhibitory activities of RGD peptides.
The following peptides were synthesized, and their amino acid contents were analyzed as described in procedures 3-7, above. In addition, their ability to inhibit aggregation of human platelet rich plasma was assessed as described in procedures 1 and 2, above. Their respective IC50 values, as well as their estimated IC50 adjusted to the values according the method of Plow et al., (vide supra) are listed in Table 1.

Row | Structure (SMILES) | IC50 (M)* Estimated IC50 adjusted to the values by the method of Plow et al.
1 | N=C(N)NCCC[C@H](N)C(=O)NCC(=O)N[C@@H](CC(=O)O)C(=O)N[C@@H](Cc1ccccc1)C(=O)N1CCC[C@H]1C(=O)NCC(=O)Nc1cc(NC(=O)CNC(=O)[C@@H]2CCCN2C(=O)[C@H](Cc2ccccc2)NC(=O)[C@H](CC(=O)O)NC(=O)CNC(=O)[C@@H](N)CCCNC(=N)N)cc(C(=O)NCC(=O)O)c1 [Example 1, (RGDFPG)2 Dab--G--OH] (I: H-RGDFPG / II: H-RGDFPG; linker I:C-II:C via X2; N-terminus assumed) | 6.7e-07 M
2 | N=C(N)NCCC[C@H](N)C(=O)NCC(=O)N[C@@H](CC(=O)O)C(=O)N[C@@H](Cc1ccccc1)C(=O)N1CCC[C@H]1C(=O)NCC(=O)Nc1cc(NC(=O)CNC(=O)[C@@H]2CCCN2C(=O)[C@H](Cc2ccccc2)NC(=O)[C@H](CC(=O)O)NC(=O)CNC(=O)[C@@H](N)CCCNC(=N)N)cc(C(N)=O)c1 [Example 2, (RGDFPG)2 Dab--NH2] (I: H-RGDFPG / II: H-RGDFPG; linker I:C-II:C via X1; N-terminus assumed) | 4.2e-07 M
3 | N=C(N)NCCC[C@H](N)C(=O)NCC(=O)N[C@@H](CC(=O)O)C(=O)N[C@@H](Cc1ccccc1)C(=O)NCCCC[C@H](NC(=O)[C@H](Cc1ccccc1)NC(=O)[C@H](CC(=O)O)NC(=O)CNC(=O)[C@@H](N)CCCNC(=N)N)C(N)=O [Example 3, (RGDF)2 Lys--NH2] | 1.2e-06 M
4 | N=C(N)NCCC[C@H](NC(=O)CN)C(=O)NCC(=O)N[C@@H](CC(=O)O)C(=O)N[C@@H](Cc1ccccc1)C(=O)NCCC[C@H](NC(=O)[C@H](Cc1ccccc1)NC(=O)[C@H](CC(=O)O)NC(=O)CNC(=O)[C@H](CCCNC(=N)N)NC(=O)CN)C(N)=O [Example 5, (GRGDF)2 Orn--NH2] | 4.4e-06 M
5 | N=C(N)NCCC[C@H](NC(=O)c1ccccc1)C(=O)NCC(=O)N[C@@H](CC(=O)O)C(=O)N[C@@H](Cc1ccccc1)C(=O)NCCCC[C@H](NC(=O)[C@H](Cc1ccccc1)NC(=O)[C@H](CC(=O)O)NC(=O)CNC(=O)[C@H](CCCNC(=N)N)NC(=O)c1ccccc1)C(N)=O [Example 7, (BzRGDF)2 Lys--NH2] | 2.9e-07 M
6 | CCCCCC(=O)N[C@@H](CCCNC(=N)N)C(=O)NCC(=O)N[C@@H](CC(=O)O)C(=O)N[C@@H](Cc1ccccc1)C(=O)NCCCC[C@H](NC(=O)[C@H](Cc1ccccc1)NC(=O)[C@H](CC(=O)O)NC(=O)CNC(=O)[C@H](CCCNC(=N)N)NC(=O)CCCCC)C(N)=O [Example 8, (HexRGDF)2 Lys--NH2] | 7.6e-08 M
7 | N=C(N)NCCC[C@H](NC(=O)CCCC(=O)N[C@@H](CCCNC(=N)N)C(=O)NCC(=O)N[C@@H](CC(=O)O)C(=O)N[C@@H](Cc1ccccc1)C(=O)O)C(=O)NCC(=O)N[C@@H](CC(=O)O)C(=O)N[C@@H](Cc1ccccc1)C(=O)O [Example 13, Pda (RGDF--OH)2] (I: RGDF-OH / II: RGDF-OH; linker I:N-II:N via Glutaryl) | 5e-07 M
8 | N=C(N)NCCC[C@H](NC(=O)CCCCC(=O)N[C@@H](CCCNC(=N)N)C(=O)NCC(=O)N[C@@H](CC(=O)O)C(=O)N[C@@H](Cc1ccccc1)C(=O)O)C(=O)NCC(=O)N[C@@H](CC(=O)O)C(=O)N[C@@H](Cc1ccccc1)C(=O)O [Example 14, Bda(RGDF--OH)2] (I: RGDF-OH / II: RGDF-OH; linker I:N-II:N via Adipoyl) | 4.7e-07 M
9 | N=C(N)NCCC[C@H](NC(=O)CN)C(=O)NCC(=O)N[C@@H](CC(=O)O)C(=O)N[C@@H](Cc1ccccc1)C(=O)NCC(=O)Nc1cc(NC(=O)CNC(=O)[C@H](Cc2ccccc2)NC(=O)[C@H](CC(=O)O)NC(=O)CNC(=O)[C@H](CCCNC(=N)N)NC(=O)CN)cc(C(=O)NCC(=O)N[C@@H](CCCNC(=N)N)C(=O)NCC(=O)N[C@@H](CC(=O)O)C(=O)N[C@@H](Cc2ccccc2)C(N)=O)c1 [Example 15, (GRGDFG)2 Dab--GRGDF--NH2] | 1.1e-06 M
10 | N=C(N)NCCC[C@H](NC(=O)C1CC(NC(=O)[C@H](Cc2ccccc2)NC(=O)[C@H](CC(=O)O)NC(=O)CNC(=O)[C@@H](N)CCCNC(=N)N)CC(NC(=O)[C@H](Cc2ccccc2)NC(=O)[C@H](CC(=O)O)NC(=O)CNC(=O)[C@@H](N)CCCNC(=N)N)C1)C(=O)NCC(=O)N[C@@H](CC(=O)O)C(=O)N[C@@H](Cc1ccccc1)C(=O)O (some centres unmarked) [Example 16, (RGDF)2 Dac--RGDF--OH] | 7.2e-07 M
11 | N=C(N)NCCC[C@H](NC(=O)CN)C(=O)NCC(=O)N[C@@H](CC(=O)O)C(=O)N[C@@H](Cc1ccccc1)C(=O)NCCCC[C@H](NC(=O)[C@H](Cc1ccccc1)NC(=O)[C@H](CC(=O)O)NC(=O)CNC(=O)[C@H](CCCNC(=N)N)NC(=O)CN)C(=O)NCC(=O)N[C@@H](CCCNC(=N)N)C(=O)NCC(=O)N[C@@H](CC(=O)O)C(=O)N[C@@H](Cc1ccccc1)C(N)=O [Example 17, (GRGDF)2 Lys--GRGDF--NH2] | 1.7e-06 M
12 | N=C(N)NCCC[C@H](NC(=O)CN)C(=O)NCC(=O)N[C@@H](CC(=O)O)C(=O)N[C@@H](Cc1ccccc1)C(=O)NCCC[C@H](NC(=O)[C@H](Cc1ccccc1)NC(=O)[C@H](CC(=O)O)NC(=O)CNC(=O)[C@H](CCCNC(=N)N)NC(=O)CN)C(=O)NCC(=O)N[C@@H](CCCNC(=N)N)C(=O)NCC(=O)N[C@@H](CC(=O)O)C(=O)N[C@@H](Cc1ccccc1)C(N)=O [Example 18, (GRGDF)2 Orn--GRGDF--NH2] | 2.1e-06 M
13 | N=C(N)NCCC[C@H](NC(=O)CN)C(=O)NCC(=O)N[C@@H](CC(=O)O)C(=O)N[C@@H](Cc1ccccc1)C(=O)NCC(=O)Nc1ccc(C(=O)NCC(=O)N[C@@H](CCCNC(=N)N)C(=O)NCC(=O)N[C@@H](CC(=O)O)C(=O)N[C@@H](Cc2ccccc2)C(=O)O)cc1 [Example 21, GRGDFG--(p)Abz--GRGDF--OH] (H-GRGDFG[4Abz]GRGDF-OH) | 1.2e-06 M
14 | N=C(N)NCCC[C@H](NC(=O)CN)C(=O)NCC(=O)N[C@@H](CC(=O)O)C(=O)N[C@@H](Cc1ccccc1)C(=O)NCC(=O)Nc1ccccc1C(=O)NCC(=O)N[C@@H](CCCNC(=N)N)C(=O)NCC(=O)N[C@@H](CC(=O)O)C(=O)N[C@@H](Cc1ccccc1)C(N)=O [Example 22, GRGDFG-(o)Abz--GRGDF--NH2] (H-GRGDFG[2Abz]GRGDF-NH2) | 3.1e-06 M
15 | N=C(N)NCCC[C@H](NC(=O)CN)C(=O)NCC(=O)N[C@@H](CC(=O)O)C(=O)N[C@@H](Cc1ccccc1)C(=O)NCC(=O)Nc1ccc(C(=O)NCC(=O)N[C@@H](CCCNC(=N)N)C(=O)NCC(=O)N[C@@H](CC(=O)O)C(=O)N[C@@H](Cc2ccccc2)C(N)=O)cc1 [Example 24, GRGDFG--(p)Abz--GRGDF--NH2] (H-GRGDFG[4Abz]GRGDF-NH2) | 2.1e-06 M
16 | N=C(N)NCCC[C@H](NC(=O)CN)C(=O)NCC(=O)N[C@@H](CC(=O)O)C(=O)N[C@@H](CO)C(=O)NCC(=O)Nc1cccc(C(=O)NCC(=O)N[C@@H](CCCNC(=N)N)C(=O)NCC(=O)N[C@@H](CC(=O)O)C(=O)N[C@@H](Cc2ccccc2)C(N)=O)c1 [Example 26, GRGDSG--(m)Abz--GRGDF--NH2] (H-GRGDSG[3Abz]GRGDF-NH2) | 3e-06 M
17 | N=C(N)NCCC[C@H](NC(=O)CN)C(=O)NCC(=O)N[C@@H](CC(=O)O)C(=O)N[C@@H](CO)C(=O)NCC(=O)Nc1ccc(C(=O)NCC(=O)N[C@@H](CCCNC(=N)N)C(=O)NCC(=O)N[C@@H](CC(=O)O)C(=O)N[C@@H](Cc2ccccc2)C(N)=O)cc1 [Example 27, GRGDSG-(p)Abz--GRGDF--NH2] (H-GRGDSG[4Abz]GRGDF-NH2) | 1.7e-06 M
